Data published in patent publication US8653087B2, “Pyrido [5, 4-D] pyrimidines as cell proliferation inhibitors” (Boehringer Ingelheim International GmbH, priority 2008, dated 2014).

The molecules below were run against B-Raf (V600E)-kinase (Homo sapiens (Human), UniProt P15056, V600E) (assay: Kinase test B-RAF (V600E)). Details: B-RAF (V600E) kinase test, 250 μM ATP.
Sequence of B-Raf (V600E)-kinase (P15056 whole entry V600E): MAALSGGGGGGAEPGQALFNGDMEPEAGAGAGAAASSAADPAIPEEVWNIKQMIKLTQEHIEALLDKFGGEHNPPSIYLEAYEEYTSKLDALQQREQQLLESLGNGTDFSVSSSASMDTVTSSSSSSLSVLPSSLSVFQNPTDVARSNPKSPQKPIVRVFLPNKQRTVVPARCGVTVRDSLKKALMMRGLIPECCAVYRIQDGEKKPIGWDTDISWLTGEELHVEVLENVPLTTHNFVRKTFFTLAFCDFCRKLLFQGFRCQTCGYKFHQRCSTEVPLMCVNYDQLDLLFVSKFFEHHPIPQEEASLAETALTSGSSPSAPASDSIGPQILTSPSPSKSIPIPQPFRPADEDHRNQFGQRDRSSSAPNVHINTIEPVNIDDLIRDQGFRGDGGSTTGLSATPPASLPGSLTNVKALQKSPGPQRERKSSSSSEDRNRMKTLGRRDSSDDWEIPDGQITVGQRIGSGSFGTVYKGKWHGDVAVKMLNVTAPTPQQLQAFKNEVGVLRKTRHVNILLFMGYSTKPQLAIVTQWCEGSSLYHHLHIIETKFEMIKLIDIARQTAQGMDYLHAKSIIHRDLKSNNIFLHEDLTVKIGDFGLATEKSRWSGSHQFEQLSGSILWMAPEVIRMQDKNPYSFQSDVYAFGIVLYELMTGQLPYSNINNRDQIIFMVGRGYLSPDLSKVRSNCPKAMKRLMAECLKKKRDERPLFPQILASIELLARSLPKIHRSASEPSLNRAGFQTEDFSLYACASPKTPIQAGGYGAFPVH
Assay type: biochemical
Summary of the method: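 B-Raf (V600E) (0.5 ng) preincubated with compound 24 h at RT (5% DMSO), then reacted 60 min at RT with 250 μM ATP and biotinylated MEK1 as substrate. Phospho-MEK (Ser217/221) captured on streptavidin and detected by europium time-resolved fluorescence; IC50 from dose-response curves.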
`Cc1ccc(NC(=O)c2cccc(C(C)(C)C#N)c2)cc1Nc1ncnc2cnc(N3CCOCC3)nc12` [IV-2] showed an IC50 of under 1 nM.
With `Cc1ccc(NC(=O)c2cccc(C(F)(F)F)c2)cc1Nc1ncnc2cnc(N3CCN(C)CC3)nc12` [IV-3] the IC50 was 12 nM.
With `Cc1ccc(NC(=O)c2cc(C(C)(C)C)n[nH]2)cc1Nc1ncnc2cnc(N3CCN(C)CC3)nc12` [IV-4] the IC50 was 44 nM.
Work on `Cc1ccc(NC(=O)c2cc(C(C)(C)C)on2)cc1Nc1ncnc2cnc(N3CCN(C)CC3)nc12` [IV-5] yielded an IC50 of 129 nM.
Work on `Cc1ccc(NC(=O)c2cccc(C(C)(C)C#N)c2)cc1Nc1ncnc2cnc(N3CCN(C)CC3)nc12` [IV-7] yielded an IC50 of 1 nM.
`Cc1ccc(NC(=O)c2cc(C(C)(C)C)nn2C)cc1Nc1ncnc2cnc(N3CCN(C)CC3)nc12` [IV-10] gave an IC50 of 221 nM.
`Cc1ccc(NC(=O)c2cccc(C(C)(C)C#N)c2)cc1Nc1ncnc2cnc(N(C)C)nc12` [IV-12] gave an IC50 of 1 nM.
`Cc1ccc(NC(=O)c2cc(N3CCN(C)CC3)cc(C(F)(F)F)c2)cc1Nc1ncnc2cnc(N(C)C)nc12` [IV-13] gave an IC50 of 3 nM.
Molecule `COc1ccc(C(=O)Nc2ccc(C)c(Nc3ncnc4cnc(N(C)C)nc34)c2)cc1C(F)(F)F` [IV-15] has an IC50 of 3 nM.
Molecule `Cc1ccc(NC(=O)c2cc(N3CCN(C)CC3)cc(C(F)(F)F)c2)cc1Nc1ncnc2cnc(N(C)CCN(C)C)nc12` [IV-18] has an IC50 of 9 nM.
`Cc1ccc(NC(=O)c2cccc(C(C)(C)C#N)c2)cc1Nc1ncnc2cnc(N(C)CCCN(C)C)nc12` [IV-22] showed an IC50 of 2 nM.
With `Cc1ccc(NC(=O)c2cc(N3CCN(C)CC3)cc(C(F)(F)F)c2)cc1Nc1ncnc2cnc(N(C)CCCN(C)C)nc12` [IV-23] the IC50 was 4 nM.
With `Cc1ccc(NC(=O)c2cc(C(C)(C)C)nn2C)cc1Nc1ncnc2cnc(N(C)CCCN(C)C)nc12` [IV-24] the IC50 was 72 nM.
With `Cc1ccc(NC(=O)c2cccc(C(C)(C)C#N)c2)cc1Nc1ncnc2cnc(N3CCN(C4CC4)CC3)nc12` [IV-26] the IC50 was 2 nM.
With `CCN1CCN(c2ncc3ncnc(Nc4cc(NC(=O)c5cccc(C(C)(C)C#N)c5)ccc4C)c3n2)CC1` [IV-27] the IC50 was 1 nM.
`Cc1ccc(NC(=O)c2cccc(C(C)(C)C#N)c2)cc1Nc1ncnc2cnc(NC3CCN(C)CC3)nc12` [IV-28] showed an IC50 of 1 nM.
`Cc1ccc(NC(=O)c2cccc(C(C)(C)C#N)c2)cc1Nc1ncnc2cnc(N(C)C3CCN(C)CC3)nc12` [IV-29] was tested, and the IC50 was 1 nM.
`Cc1ccc(NC(=O)c2cccc(C(C)(C)C#N)c2)cc1Nc1ncnc2cnc(NC3CCOC3)nc12` (stereo not shown) [IV-30] showed an IC50 of under 1 nM.
`Cc1ccc(NC(=O)c2cccc(C(C)(C)C#N)c2)cc1Nc1ncnc2cnc(N(C)C3CCOCC3)nc12` [IV-31] was tested, and the IC50 was 5 nM.
`Cc1ccc(NC(=O)c2cccc(C(C)(C)C#N)c2)cc1Nc1ncnc2cnc(NC3CCOC3)nc12` (stereo not shown) [IV-32] was tested, and the IC50 was 1 nM.
For `Cc1ccc(NC(=O)c2cccc(C(C)(C)C#N)c2)cc1Nc1ncnc2cnc(N3CCC(F)(F)C3)nc12` [IV-33], the IC50 was 2 nM.
`Cc1ccc(NC(=O)c2cccc(C(C)(C)C#N)c2)cc1Nc1ncnc2cnc(N3CC[C@@H](F)C3)nc12` [IV-34] showed an IC50 of 2 nM.
`Cc1ccc(NC(=O)c2cccc(C(C)(C)C#N)c2)cc1Nc1ncnc2cnc(N3CC[C@H](F)C3)nc12` [IV-35] was tested, and the IC50 was 2 nM.
`CC(=O)N1CCN(c2ncc3ncnc(Nc4cc(NC(=O)c5cccc(C(C)(C)C#N)c5)ccc4C)c3n2)CC1` [IV-36] showed an IC50 of 4 nM.
For `Cc1ccc(NC(=O)c2cccc(C(C)(C)C#N)c2)cc1Nc1ncnc2cnc(N(C)C3CCOC3)nc12` (stereo not shown) [IV-37], the IC50 was 1 nM.
For `Cc1ccc(NC(=O)c2cccc(C(C)(C)C#N)c2)cc1Nc1ncnc2cnc(NC3CCOCC3)nc12` [IV-38], the IC50 was 2 nM.
In the case of `Cc1ccc(NC(=O)c2cccc(C(C)(C)C#N)c2)cc1Nc1ncnc2cnc(N(C)CC3CCOCC3)nc12` [IV-39], the IC50 is reported as 4 nM.
Work on `COc1ncc2ncnc(Nc3cc(NC(=O)c4cccc(C(C)(C)C#N)c4)ccc3C)c2n1` [IV-40] yielded an IC50 of 2 nM.
`COc1ncc2ncnc(Nc3cc(NC(=O)c4ccc(OC)c(C(F)(F)F)c4)ccc3C)c2n1` [IV-42] showed an IC50 of 13 nM.
With `COc1ncc2ncnc(Nc3cc(NC(=O)c4cc(N5CCN(C)CC5)cc(C(F)(F)F)c4)ccc3C)c2n1` [IV-46] the IC50 was 3 nM.
`COc1ncc2ncnc(Nc3cc(NC(=O)c4ccc(Cl)c(C(F)(F)F)c4)ccc3C)c2n1` [IV-50] gave an IC50 of 59 nM.
Molecule `Cc1ccc(NS(=O)(=O)CC(F)(F)F)cc1Nc1ncnc2cnc(N3CCN(C)CC3)nc12` [IV-53] has an IC50 of 10000 nM.
Molecule `Cc1ccc(NS(=O)(=O)CCC(C)C)cc1Nc1ncnc2cnc(N3CCN(C)CC3)nc12` [IV-54] has an IC50 of 10000 nM.
In the case of `Cc1ccc(NS(=O)(=O)C2CCCCC2)cc1Nc1ncnc2cnc(N3CCN(C)CC3)nc12` [IV-55], the IC50 is reported as 10000 nM.
Molecule `CCC(C)S(=O)(=O)Nc1ccc(C)c(Nc2ncnc3cnc(N4CCN(C)CC4)nc23)c1` (stereo not shown) [IV-56] has an IC50 of 10000 nM.
In the case of `Cc1ccc(NS(=O)(=O)CC(C)C)cc1Nc1ncnc2cnc(N3CCN(C)CC3)nc12` [IV-57], the IC50 is reported as 10000 nM.
`Cc1ccc(NS(=O)(=O)C(C)C)cc1Nc1ncnc2cnc(N3CCN(C)CC3)nc12` [IV-58] was tested, and the IC50 was 49 nM.
`Cc1ccc(NS(=O)(=O)CCC(F)(F)F)cc1Nc1ncnc2cnc(N3CCN(C)CC3)nc12` [IV-59] was tested, and the IC50 was 2000 nM.
With `Cc1ccc(NS(=O)(=O)CC2CC2)cc1Nc1ncnc2cnc(N3CCN(C)CC3)nc12` [IV-60] the IC50 was 2000 nM.
For `Cc1ccc(NS(=O)(=O)c2cccc(C(F)(F)F)c2)cc1Nc1ncnc2cnc(N3CCN(C)CC3)nc12` [IV-61], the IC50 was 10000 nM.
`Cc1ccc(NS(=O)(=O)CC2CCCO2)cc1Nc1ncnc2cnc(N3CCN(C)CC3)nc12` (stereo not shown) [IV-62] was tested, and the IC50 was 2000 nM.
`Cc1ccc(NS(=O)(=O)C2CC2)cc1Nc1ncnc2cnc(N3CCN(C)CC3)nc12` [IV-63] showed an IC50 of 595 nM.
`CCS(=O)(=O)Nc1ccc(C)c(Nc2ncnc3cnc(N4CCN(C)CC4)nc23)c1` [IV-64] was tested, and the IC50 was 521 nM.
With `CCCS(=O)(=O)Nc1ccc(C)c(Nc2ncnc3cnc(N4CCN(C)CC4)nc23)c1` [IV-65] the IC50 was 2000 nM.
`Cc1ccc(NS(C)(=O)=O)cc1Nc1ncnc2cnc(N3CCN(C)CC3)nc12` [IV-66] was tested, and the IC50 was 10000 nM.
In the case of `CCN1CCN(c2cc(C(=O)Nc3ccc(C)c(Nc4ncnc5cnc(N6CCOCC6)nc45)c3)cc(C(C)(C)C#N)c2)CC1` [IV-67], the IC50 is reported as 2 nM.
In the case of `Cc1ccc(NC(=O)c2cc(N3CCN(C)CC3)cc(C(C)(C)C#N)c2)cc1Nc1ncnc2cnc(N3CCOCC3)nc12` [IV-68], the IC50 is reported as 3 nM.
In the case of `Cc1ccc(C(=O)Nc2cc(C(C)(C)C)on2)cc1Nc1ncnc2cncnc12` [V-1], the IC50 is reported as 2 nM.
In the case of `Cc1ccc(C(=O)Nc2cc(CN3CCCC3)cc(C(F)(F)F)c2)cc1Nc1ncnc2cncnc12` [V-8], the IC50 is reported as 4 nM.
In the case of `Cc1ccc(C(=O)Nc2cc(C(C)(C)C)n[nH]2)cc1Nc1ncnc2cncnc12` [V-9], the IC50 is reported as 5 nM.
In the case of `Cc1ccc(C(=O)Nc2cc(C(C)(C)C)nn2C)cc1Nc1ncnc2cncnc12` [V-10], the IC50 is reported as 14 nM.
`CNc1ncnc2c(Nc3cc(C(=O)Nc4cc(C(C)(C)C)on4)ccc3C)ncnc12` [VII-1] gave an IC50 of 1 nM.
Work on `CNc1ncnc2c(Nc3cc(NC(=O)c4cccc(C(C)(C)C#N)c4)ccc3C)ncnc12` [VIII-1] yielded an IC50 of under 1 nM.
Molecule `CC(C)(C#N)c1cccc(C(=O)Nc2cccc(Nc3ncnc4c(N)ncnc34)c2)c1` [VIII-2] has an IC50 of 30 nM.
Work on `CNc1ncnc2c(Nc3cccc(NC(=O)c4cccc(C(C)(C)C#N)c4)c3)ncnc12` [VIII-3] yielded an IC50 of 13 nM.
